We go through 20 substances from patent US11214803B2, “Modulators of YAP1 expression” (Ionis Pharmaceuticals, Inc., priority 2019, dated 2022).

Marks after values point to notes of the source that are not given here. Strand notation (5' to 3'): a small letter for the sugar, then the base; units joined by * are phosphorothioate-linked, units joined directly phosphodiester-linked; [ ] holds rarer units or linkages, { } end groups; capitals alone tell only the bases. k = constrained ethyl (cEt); [5mC] = 5-methylcytosine; d = 2'-deoxy (DNA)

In this data set the test system is Yap1 mRNA. As to the kind of experiment: Antisense inhibition of human Yap1 in A-431 cells by cEt gapmers, single dose (Example 3, RTS36584). Type of data set: cell-based. The following applies: Table 8; A-431 cells, 5,000 cells per well, free uptake, 2,000 nM, approximately 48 hours; RTS36584; normalized to RIBOGREEN; Yap1 mRNA relative to untreated control cells. The protocol: Modified oligonucleotides were designed to target a Yap1 nucleic acid and were tested for their effect on Yap1 mRNA level in vitro. The modified oligonucleotides were tested in a series of experiments that had similar culture conditions. Cultured A-431 cells at a density of 5,000 cells per well were treated using free uptake with 2,000 nM of modified oligonucleotide. After a treatment period of approximately 48 hours, RNA was isolated from the cells and Yap1 mRNA levels were measured by quantitative real-time RTPCR. Human primer probe set RTS36584 (forward sequence […], designated herein as SEQ ID NO.: 14; reverse sequence […], designated herein as SEQ ID NO.: 15; probe sequence […], designated herein as SEQ ID NO.: 16) was used to measure mRNA levels. Yap1 mRNA levels were normalized to total RNA content, as measured by RIBOGREEN®. Results are presented in the tables below as percent control of the amount of Yap1 mRNA relative to untreated control cells (% UTC). The modified oligonucleotides with percent control values marked with an asterisk (*) target the amplicon region of the primer probe set. Additional assays may be used to measure the potency and efficacy of the modified oligonucleotides targeting the amplicon region.
The newly designed modified oligonucleotides in the Tables below were designed as 3-10-3 cEt gapmers. The gapmers are 16 nucleosides in length, wherein the central gap segment comprises of ten 2′-deoxynucleosides and is flanked by wing segments on the 5′ direction and the 3′ direction comprising three nucleosides each. Each nucleoside in the 5′ wing segment and each nucleoside in the 3′ wing segment has a cEt sugar modification. The internucleoside linkages throughout each gapmer are phosphorothioate (P═S) linkages. All cytosine residues throughout each gapmer are 5-methylcytosines.
“Start site” indicates the 5′-most nucleoside to which the gapmer is targeted in the human gene sequence. “Stop site” indicates the 3′-most nucleoside to which the gapmer is targeted human gene sequence. […] Activity of the modified oligonucleotide may be defined in a different experiment.
With “958348 (k[5mC]*kG*kA*dG*dT*d[5mC]*d[5mC]*d[5mC]*d[5mC]*dG*d[5mC]*dG*dG*kA*k[5mC]*kG; antisense) [Compound 958348]”, the “YAP1 (% UTC)” value stood at 122 % UTC.
As for “958349 (k[5mC]*k[5mC]*kG*dA*dG*dT*d[5mC]*d[5mC]*d[5mC]*d[5mC]*dG*d[5mC]*dG*kG*kA*k[5mC]; antisense) [Compound 958349]”, the “YAP1 (% UTC)” value stood at 81 % UTC.
Then “958350 (kT*k[5mC]*k[5mC]*dG*dA*dG*dT*d[5mC]*d[5mC]*d[5mC]*d[5mC]*dG*d[5mC]*kG*kG*kA; antisense) [Compound 958350]”, with 106 % UTC; and “958351 (kT*k[5mC]*kT*d[5mC]*d[5mC]*dG*dA*dG*dT*d[5mC]*d[5mC]*d[5mC]*d[5mC]*kG*k[5mC]*kG; antisense) [Compound 958351]”, with 67 % UTC; and “958352 (k[5mC]*kG*kG*dT*d[5mC]*dT*d[5mC]*d[5mC]*dG*dA*dG*dT*d[5mC]*k[5mC]*k[5mC]*k[5mC]; antisense) [Compound 958352]”, with 110 % UTC.
On to “958353 (antisense kT*k[5mC]*kG*dG*dT*d[5mC]*dT*d[5mC]*d[5mC]*dG*dA*dG*dT*k[5mC]*k[5mC]*k[5mC]) [Compound 958353]”, for which the “YAP1 (% UTC)” value was determined as 43 % UTC.
For “958354 (antisense kG*kT*k[5mC]*dG*dG*dT*d[5mC]*dT*d[5mC]*d[5mC]*dG*dA*dG*kT*k[5mC]*k[5mC]) [Compound 958354]”, the “YAP1 (% UTC)” value is recorded as 31 % UTC.
With “958355 (antisense k[5mC]*kG*kT*dT*dG*dG*d[5mC]*d[5mC]*dG*dT*d[5mC]*dT*dT*kG*kG*kG) [Compound 958355]”, the “YAP1 (% UTC)” value came to 51 % UTC.
Then “958356 (antisense kT*kT*kG*dA*dA*dG*dA*dA*dG*dG*dA*dG*dT*k[5mC]*kG*kG) [Compound 958356]”, with 9 % UTC.
Then “958357 (antisense k[5mC]*kG*kG*d[5mC]*dT*dT*dG*dA*dA*dG*dA*dA*dG*kG*kA*kG) [Compound 958357]”, with 12 % UTC.
Then “958358 (antisense kG*kG*k[5mC]*dG*dG*d[5mC]*dT*dT*dG*dA*dA*dG*dA*kA*kG*kG) [Compound 958358]”, with 34 % UTC.
Regarding “958359 (antisense kT*kG*k[5mC]*dA*dT*d[5mC]*dA*dG*dT*dA*d[5mC]*dT*dG*kG*k[5mC]*k[5mC]) [Compound 958359]”, the “YAP1 (% UTC)” value worked out at 117 % UTC.
Turning to “958360 (antisense kT*k[5mC]*kG*dA*dA*d[5mC]*dA*dT*dG*d[5mC]*dT*dG*dT*kG*kG*kA) [Compound 958360]”, the “YAP1 (% UTC)” value amounted to 12 % UTC.
To “958361 (antisense kG*k[5mC]*kT*d[5mC]*dG*dA*dA*d[5mC]*dA*dT*dG*d[5mC]*dT*kG*kT*kG) [Compound 958361]” belongs 8 % UTC; to “958362 (antisense kA*kG*k[5mC]*dT*d[5mC]*dG*dA*dA*d[5mC]*dA*dT*dG*d[5mC]*kT*kG*kT) [Compound 958362]”, 58 % UTC; to “958363 (antisense kT*kG*kA*dG*d[5mC]*dT*d[5mC]*dG*dA*dA*d[5mC]*dA*dT*kG*k[5mC]*kT) [Compound 958363]”, 70 % UTC.
Then “958364 (antisense k[5mC]*kA*kT*dG*dT*dT*dG*dT*dT*dG*dT*d[5mC]*dT*kG*kA*kT) [Compound 958364]”, with 19 % UTC; and “958365 (antisense kG*k[5mC]*k[5mC]*dA*dT*dG*dT*dT*dG*dT*dT*dG*dT*k[5mC]*kT*kG) [Compound 958365]”, with 34 % UTC; and “958366 (antisense kT*kG*kT*dA*dG*d[5mC]*dT*dG*d[5mC]*dT*d[5mC]*dA*dT*kG*k[5mC]*kT) [Compound 958366]”, with 16* % UTC.
Then “958367 (antisense k[5mC]*kT*kA*dG*d[5mC]*dT*dT*dG*dG*dT*dG*dG*d[5mC]*kA*kG*k[5mC]) [Compound 958367]”, with 105 % UTC.
